According to US8492567B2, “(Poly)Aminoalkylaminoalkylamide, alkyl-urea, or alkyl-sulfonamide derivatives of epipodophyllotoxin, a process for preparing them, and application thereof in therapy as anticancer agents” (Pierre Fabre Medicament, priority 2008, dated 2013):
Structures can show the parent of a compound that is named as a salt.

Columns and labels:
[1] = system: A549 human line (non-small cell lung cancer); test: Cytotoxicity test: cell growth inhibition of the A549 human line (ATP-lite luminescence); assay type: cell-based; details: A549 cells, 48 hrs incubation with compound, read-out: IC50 (concentration providing a 50% inhibition of cell proliferation)
Method: A cytotoxicity test is used. It measures the cell growth inhibition of the A549 human line (non-small cell lung cancer):
The A549 tumor cells are plated in a 96-well plate in RPMI 1640 medium free of phenol red (Seromed) to which is added 5% of fetal calf serum (100 μl/well, 1.25×10^4 cells/ml). After incubation for 24 hrs at 37° C. in an incubator at 5% CO2, the medium is replaced by that containing the compound to be tested, followed by incubation of the plates for another 48 hrs. Cell survival is assessed by measuring the luminescence after salting-out of the ATP from the medium using the cell lysis, luciferase and luciferine solutions included in the ATP-lite-M™ kit following the manufacturer's guidelines (Packard, Rungis, France). Each experimental condition was tested at least three times in sixplicate.

P388 murine leukemia = test: Experimental P388 tumor model, survival of mice; assay type: in vivo; details: dose of 0.16 mg/kg
Excerpt: Experimental P388 tumor model. The model used is P388 murine leukemia (Tumor Models in Cancer Research. Teicher, B. A. ed., Humana Press Inc., Totowa, N.J. Pp. 23-40, 2002), which is maintained by sequential intraperitoneal transplantations in DBA/2 mice (DBA/2JIco mice, Charles River), as previously disclosed (Classic in vivo cancer models: Three examples of mouse models used in experimental therapeutics. Current Protocols in Pharmacology Unit 5.24: 5.24.1-5.24.16, 2001).
The experiment is carried out according to a previously disclosed protocol (Cancer Chemother. Pharmacol. 1998, 41, 437-447). This comprises implanting 10^6 P388 leukemia cells per mouse into C2DF1 hybrid mice (CD2F1/CrlBR, Charles River, St Aubin-les-Elbeuf, France) intravenously at day zero. After the animals have been randomized in treatment and control cages, the compounds to be tested are administered in one single injection by intraperitoneal route the day after the tumor transplantation, at day 1. The animals are then monitored every day, weighed twice per week, and any clinical reaction is recorded. The survival rate is the parameter used to assess antitumor activity. […] The T/Csurvival ratio is calculated for each dosage and the largest value obtained represents the maximum increase in survival rate achieved (maximum activity), which is defined as the optimum T/Csurvival ratio.

melting point	Structure (SMILES)	also measured
169 °C	COc1cc(C2c3cc4c(cc3[C@@H](NC(=O)CCCN(C)C)[C@H]3COC(=O)[C@H]23)OCO4)cc(OC)c1O (stereo in doubt) (as salt: hydrochloride)	–
284 °C	COc1cc(C2c3cc4c(cc3[C@@H](NC(=O)CCCN)[C@H]3COC(=O)[C@H]23)OCO4)cc(OC)c1O (stereo in doubt) (as salt: hydrochloride)	–
213 °C	COc1cc(C2c3cc4c(cc3[C@@H](NC(=O)NCCCNCCCNCCCCNCCCN)[C@H]3COC(=O)[C@H]23)OCO4)cc(OC)c1O (stereo in doubt)	–

The next lines start with the molecule.

Structure (SMILES)	melting point	also measured
COc1cc(C2c3cc4c(cc3[C@@H](NC(=O)CCCNCCCNCCCCNCCCN)[C@H]3COC(=O)[C@H]23)OCO4)cc(OC)c1O (stereo partly drawn) [Compound 21, 4-{3-[4-(3-Aminopropylamino)-butylamino]-propylamino}-N-[9-(4-hydroxy-3,5-dimethoxyphenyl)-8-oxo-5,5a,6,8,8a,9-hexahydrofuro[3′,4′:6,7]-naphtho[2,3-d][1,3]dioxol-5-yl]-butyramide]	–	IC50 [1]: 1.7 nM; optimum T/Csurvival value (P388 murine leukemia; single intraperitoneal injection at day 1, 10^6 P388 cells intravenously at day 0, mice): 186%; increase in survival rate of the animals (P388 murine leukemia; single intraperitoneal injection at day 1, P388 leukemia mice): 86%
COc1cc(C2c3cc4c(cc3[C@@H](NS(=O)(=O)CCNCCCNCCCCNCCCN)[C@H]3COC(=O)[C@H]23)OCO4)cc(OC)c1O (stereo partly drawn) (as salt: hydrochloride)	191 °C	–
COc1cc(C2c3cc4c(cc3[C@@H](NC(=O)NCCCNCCCCNCCCN)[C@H]3COC(=O)[C@H]23)OCO4)cc(OC)c1O (stereo partly drawn) [Compound 48, 1-{3-[4-(3-Aminopropylamino)-butylamino]-propyl}-3-[9-(4-hydroxy-3,5-dimethoxyphenyl)-8-oxo-5,5a,6,8,8a,9-hexahydrofuro[3′,4′:6,7]-naphtho[2,3-d][1,3]dioxol-5-yl]-urea]	–	IC50 [1]: 12 nM
COc1cc(C2c3cc4c(cc3[C@@H](NC(=O)NCCCNCCCCNCCCN)[C@H]3COC(=O)[C@H]23)OCO4)cc(OC)c1O (stereo partly drawn) (as salt: hydrochloride) [Compound 48, 1-{3-[4-(3-Aminopropylamino)-butylamino]-propyl}-3-[9-(4-hydroxy-3,5-dimethoxyphenyl)-8-oxo-5,5a,6,8,8a,9-hexahydrofuro[3′,4′:6,7]-naphtho[2,3-d][1,3]dioxol-5-yl]-urea]	166 °C	–
